Values joined by “and” are separate entries in the source; they are usually repeats but may differ in a detail not shown here. Equal entries are not always repeated. Where two headings read alike, the source gives them in different places.
How the values were obtained:
[1] = tested on: cows (Holstein Friesians); assay: Treatment with DPD analogs (organosulfur compounds) and milk yield (Example 8); type: in vivo, cow; conditions: for % reduction after 24 h average (milk yield): 24 h after one oral gel capsule; for % reduction after 24 h average (milk yield) / % reduction after 48 h average (milk yield) / % reduction after 72 h average (milk yield) / % reduction after 96 h average (milk yield) / average reduction after 24, 48 and 72 h (%) (milk yield) / Average reduction after 24 and 48 h (%) (milk yield): dose equimolar to 80 ml di-n-propyl disulfide; for % reduction after 24 h average (milk yield) / % reduction after 48 h average (milk yield) / % reduction after 72 h average (milk yield) / % reduction after 96 h average (milk yield): negative value = increase in yield; for % reduction after 48 h average (milk yield): 48 h after one oral gel capsule; for % reduction after 72 h average (milk yield): 72 h after one oral gel capsule; for % reduction after 96 h average (milk yield): 96 h after one oral gel capsule; for average reduction after 24, 48 and 72 h (%) (milk yield): average of 24, 48 and 72 h after one oral gel capsule; for Average reduction after 24 and 48 h (%) (milk yield): average of 24 and 48 h after one oral gel capsule; for Milk yield (kg) Last milking: before administration, single oral gel capsule dose per cow (ml unless g): diethyl disulfide 63, di-n-propyl disulfide 80, diisopropyl disulfide 160, di-n-butyl disulfide 100, dibenzyl disulfide 102, diethyl sulfide 55, di-n-propyl sulfide 72, diisopropyl sulfide 74, di-n-butyl sulfide 90, dibenzyl sulfide 96 g, diphenyl sulfide 85, di-n-propyl trisulfide 98, di-n-propyl sulfone 6; for Milk yield (kg) Last milking / Average reduction after 24 and 48 h (%) / Milk yield (kg) After 24 h / Milk yield (kg) After 48 h / Milk yield (kg) After 72 h / Milk yield (kg) After 96 h / average reduction after 24, 48 and 72 h (%) / % reduction after 24 h / % reduction after 48 h / % reduction after 72 h / % reduction after 96 h: individual cows; for Average reduction after 24 and 48 h (%) / Milk yield (kg) After 24 h / Milk yield (kg) After 48 h / Milk yield (kg) After 72 h / Milk yield (kg) After 96 h / average reduction after 24, 48 and 72 h (%) / % reduction after 24 h / % reduction after 48 h / % reduction after 72 h / % reduction after 96 h: dose per compound as listed in E284; for % reduction after 24 h / % reduction after 48 h / % reduction after 72 h / % reduction after 96 h: vs milk yield before treatment
Description: Study design. 36 cows (Holstein Friesians) from 2 farms were used. The feed of the cows was composed of TMR, including corn and grass silage, supplemented with soya and minerals. […] The cows were milked in a milk robot. […] The cows were milked twice a day. The cows were housed in free stables. […] Placebo treatment corresponded to administration of two gel capsules containing 180 ml water.
For this study dosages synthetic compounds (>96% purity) as indicated in table 17 were administered to cows. The objective of this study was to compare the activity of a corresponding dose of the compounds expressed in mol, based on the number of moles that is present in 80 ml di-n-propyl disulfide at 20° C. The number of moles was converted to ml or grams of the tested compounds. For this purpose, the molecular weight and specific density were used in the calculations. The compounds were formulated in the gel capsules as indicated in the previous examples.
Before the various dosages were administered, the milk yields were monitored for at least 5 days.

[2] = tested on: cows (Holstein Friesians)
Description: Study design. Twelve cows (Holstein Friesians) from 1 farm were used. The start of the dry period of every cow was between 40 to 60 days before calving. The cows were milked twice a day at fixed times and the cows were selected on a milk production of >12.5 litres/day 24 hours before PTS administering took place. […] No extra measures were taken to stimulate dry-off, such as changes in feed ration or changes in milking frequency. The cows were milked twice a day. The cows were housed in free stables. A porcine gelatine capsule with PTS or placebo gel capsule with water were administered 7 to 14 days before the start of the dry-off period.
For this study various dosages synthetic PTS (>98% purity) were administered to cows with a milk yield of at least 12.5 kg milk per day. The following dosages were applied: 0, 10, 20, 40 ml of pure PTS. For each dosage 2 cows were used.
Before the various dosages were administered the milk yield was monitored for 14 days. The gel capsules were orally administered by a bolus shooter, the gel capsule for the placebo group contained tap water. Administering of a capsule took place between the morning and afternoon milking. On t=14 days the PTS-containing capsules and the placebo capsules were administered and the milk yield was monitored 48 hours more.

[3] = tested on: cows (Holstein Friesians); conditions: for Milk yield Last milking: before administration; for % reduction after 24 h / % reduction after 48 h / % reduction after 72 h / % reduction after 96 h: vs milk yield before treatment
Description: Twelve cows (Holstein Friesians) from 1 farm were used. The start of the dry period of every cow was between 40 to 60 days before calving. The cows were milked twice a day at fixed times and the cows were selected on a milk production of >12.5 litres/day 24 hours before PTSO administering took place. No extra measures were taken to stimulate dry-off, such as changes in feed ration or changes in milking frequency. The cows were milked twice a day. The cows were housed in free stables. A porcine gelatine capsule with PTSO or placebo gel capsule with water were administered 7 to 14 days before the start of the dry-off period.
For this study various dosages synthetic PTSO (>98% purity) were administered to cows with a milk yield of at least 12.5 kg milk per day. The following dosages were applied: 0, 10, 20, 40 ml of pure PTSO. For each dosage 3 cows were used.
Before the various dosages were administered the milk yield was monitored for 14 days. The gel capsules were orally administered by a bolus shooter, the gel capsule for the placebo group contained tap water. Administering of a capsule took place between the morning and afternoon milking. On t=14 days the PTSO-containing capsules and the placebo capsules were administered and the milk yield was monitored 48 hours more.

CCCS[S+]([O-])CCC (stereo not drawn) [PTS, di-n-propyl thiosulfinate]
% reduction after 24 h average (milk yield) [1]: 45%
% reduction after 48 h average (milk yield) [1]: 44%
% reduction after 72 h average (milk yield) [1]: 23%
% reduction after 96 h average (milk yield) [1]: 10%
average reduction after 24, 48 and 72 h (%) (milk yield) [1]: 37%
Average reduction after 24 and 48 h (%) (milk yield) [1]: 45%
Milk yield (kg) Last milking [1]: 28.6 kg and 32.7 kg
Average reduction after 24 and 48 h (%) [1]: 49% and 40%
Milk yield (kg) After 24 h [1]: 14.5 kg and 19.4 kg
Milk yield (kg) After 48 h [1]: 14.9 kg and 20 kg
Milk yield (kg) After 72 h [1]: 23.4 kg and 23.9 kg
Milk yield (kg) After 96 h [1]: 27.2 kg and 27.8 kg
average reduction after 24, 48 and 72 h (%) [1]: 39% and 35.7%
% reduction after 24 h [1]: 49% and 40%
% reduction after 48 h [1]: 48% and 39%
% reduction after 72 h [1]: 18% and 27%
% reduction after 96 h [1]: 5% and 15%
effect on milk yield compared to the milk yield before treatment ([2]; 20 ml PTS): clear lowering on milk yield
effect on milk yield/day ([2]; 40 and 60 ml PTS): visible
Milk yield ([2]; 40 ml PTS given after last milking on day 0, day 0, individual cows): 32.4 kg and 28.4 kg
Milk yield ([2]; 40 ml PTS given on day 0, day 1, individual cows): 22.4 kg and 21.9 kg
Milk yield ([2]; 40 ml PTS given on day 0, day 2, individual cows): 24.4 kg and 23.4 kg
Milk yield ([2]; 40 ml PTS given on day 0, day 3, individual cows): 28.9 kg and 26.4 kg
Milk yield ([2]; 40 ml PTS given on day 0, day 4, individual cows): 32.2 kg and 27.1 kg
Milk yield ([2]; 40 ml PTS given on day 0, day 5, individual cows): 31.2 kg and 28.2 kg
Milk yield ([2]; 40 ml PTS given on day 0, day 6, individual cows): 32.0 kg and 28.3 kg
Milk yield ([2]; 40 ml PTS given on day 0, day −1, individual cows): 31.9 kg and 27.7 kg
Milk yield ([2]; 40 ml PTS given on day 0, day −2, individual cows): 32.2 kg and 28.9 kg
Milk yield ([2]; 40 ml PTS given on day 0, day −3, individual cows): 33.3 kg and 28.1 kg
Milk yield ([2]; 40 ml PTS given on day 0, day −4, individual cows): 31.9 kg and 28.5 kg
Milk yield ([2]; 40 ml PTS given on day 0, day −5, individual cows): 31.4 kg and 27.9 kg
Milk yield ([2]; 40 ml PTS given on day 0, day −6, individual cows): 33.2 kg and 28.3 kg
Average milking/day of last 7 days before administration ([2]; 40 ml PTS, individual cows): 32.3 kg and 28.3 kg
% reduction after 24 h ([2]; 40 ml PTS, individual cows): 31% and 23%
% reduction after 48 h ([2]; 40 ml PTS, individual cows): 24% and 17%
% reduction after 72 h ([2]; 40 ml PTS, individual cows): 11% and 7%
Average reduction 24 and 48 h (%) ([2]; 40 ml PTS, individual cows): 28% and 20%
Milk yield After 24 h ([2]; 40 ml PTS, individual cows): 22.4 kg and 21.9 kg
Milk yield After 48 h ([2]; 40 ml PTS, individual cows): 24.4 kg and 23.4 kg
Milk yield After 72 h ([2]; 40 ml PTS, individual cows): 28.9 kg and 26.4 kg
Milk yield After 96 h ([2]; 40 ml PTS, individual cows): 32.2 kg and 27.1 kg
Milk yield After 120 h ([2]; 40 ml PTS, individual cows): 31.2 kg and 28.2 kg
Milk yield ([2]; 60 ml PTS given after last milking on day 0, day 0, individual cows): 32.4 kg and 29.3 kg
Milk yield ([2]; 60 ml PTS given on day 0, day 1, individual cows): 19.4 kg and 14.5 kg
Milk yield ([2]; 60 ml PTS given on day 0, day 2, individual cows): 20.0 kg and 14.9 kg
Milk yield ([2]; 60 ml PTS given on day 0, day 3, individual cows): 23.9 kg and 23.4 kg
Milk yield ([2]; 60 ml PTS given on day 0, day 4, individual cows): 27.8 kg and 27.2 kg
Milk yield ([2]; 60 ml PTS given on day 0, day 5, individual cows): 31.6 kg and 28.3 kg
Milk yield ([2]; 60 ml PTS given on day 0, day 6, individual cows): 32.2 kg and 27.4 kg
Milk yield ([2]; 60 ml PTS given on day 0, day −1, individual cows): 32.2 kg and 28.1 kg
Milk yield ([2]; 60 ml PTS given on day 0, day −2, individual cows): 33.2 kg and 28.3 kg
Milk yield ([2]; 60 ml PTS given on day 0, day −3, individual cows): 31.9 kg and 27.4 kg
Milk yield ([2]; 60 ml PTS given on day 0, day −4, individual cows): 33.5 kg and 29.6 kg
Milk yield ([2]; 60 ml PTS given on day 0, day −5, individual cows): 32.4 kg and 28.3 kg
Milk yield ([2]; 60 ml PTS given on day 0, day −6, individual cows): 33.4 kg and 28.9 kg
Average milking/day of last 7 days before administration ([2]; 60 ml PTS, individual cows): 28.6 kg and 32.7 kg
% reduction after 24 h ([2]; 60 ml PTS, individual cows): 51% and 40%
% reduction after 48 h ([2]; 60 ml PTS, individual cows): 48% and 39%
% reduction after 72 h ([2]; 60 ml PTS, individual cows): 18% and 27%
% reduction after 96 h ([2]; 60 ml PTS, individual cows): 5% and 15%
Average reduction 24 and 48 h (%) ([2]; 60 ml PTS, individual cows): 50% and 40%
Milk yield After 24 h ([2]; 60 ml PTS, individual cows): 14.5 kg and 19.4 kg
Milk yield After 48 h ([2]; 60 ml PTS, individual cows): 14.9 kg and 20 kg
Milk yield After 72 h ([2]; 60 ml PTS, individual cows): 23.4 kg and 23.9 kg
Milk yield After 96 h ([2]; 60 ml PTS, individual cows): 27.2 kg and 27.8 kg
Milk yield After 120 h ([2]; 60 ml PTS, individual cows): 28.3 kg and 31.6 kg
time to recovery of milk yield after administration ([2]; PTS): 3 to 4 days
damage to the udder ([2]; bovine, in vivo): does not reduce milk yield because of damaging the udder

CCCSS(=O)(=O)CCC [PTSO, di-n-propyl thiosulfonate]
% reduction after 24 h average (milk yield) [1]: 61%
% reduction after 48 h average (milk yield) [1]: 71%
% reduction after 72 h average (milk yield) [1]: 41%
% reduction after 96 h average (milk yield) [1]: 4.7%
average reduction after 24, 48 and 72 h (%) (milk yield) [1]: 58%
Average reduction after 24 and 48 h (%) (milk yield) [1]: 66%
Milk yield (kg) Last milking [1]: 15.7 kg
Average reduction after 24 and 48 h (%) [1]: 66%
Milk yield (kg) After 24 h [1]: 7.7 kg
Milk yield (kg) After 48 h [1]: 4.6 kg
Milk yield (kg) After 72 h [1]: 9.3 kg
Milk yield (kg) After 96 h [1]: 14.5 kg
average reduction after 24, 48 and 72 h (%) [1]: 58%
% reduction after 24 h [1]: 61%
% reduction after 48 h [1]: 71%
% reduction after 72 h [1]: 41%
% reduction after 96 h [1]: 4.7%
Average reduction 24 and 48 h (%) ([3]; 10 ml PTSO): −5%
Milk yield After 24 h ([3]; 10 ml PTSO): 19.89 kg
Milk yield After 48 h ([3]; 10 ml PTSO): 19.51 kg
Milk yield After 72 h ([3]; 10 ml PTSO): 18.94 kg
Milk yield After 96 h ([3]; 10 ml PTSO): 18.67 kg
Milk yield Last milking ([3]; 10 ml PTSO): 18.76 kg
% reduction after 24 h ([3]; 10 ml PTSO): −6%
% reduction after 48 h ([3]; 10 ml PTSO): −4%
% reduction after 72 h ([3]; 10 ml PTSO): −0.03%
% reduction after 96 h ([3]; 10 ml PTSO): 0.01%
Average reduction 24 and 48 h (%) ([3]; 20 ml PTSO): 66%
Milk yield After 24 h ([3]; 20 ml PTSO): 7.7 kg
Milk yield After 48 h ([3]; 20 ml PTSO): 4.56 kg
Milk yield After 72 h ([3]; 20 ml PTSO): 9.31 kg
Milk yield After 96 h ([3]; 20 ml PTSO): 14.99 kg
effect on milk yield compared to the milk yield before treatment ([3]; 20 ml PTSO): clear lowering on milk yield
Milk yield Last milking ([3]; 20 ml PTSO): 15.72 kg
% reduction after 24 h ([3]; 20 ml PTSO): 61%
% reduction after 48 h ([3]; 20 ml PTSO): 71%
% reduction after 72 h ([3]; 20 ml PTSO): 41%
% reduction after 96 h ([3]; 20 ml PTSO): 4.7%
Average reduction 24 and 48 h (%) ([3]; 40 ml PTSO): 55%
Milk yield After 24 h ([3]; 40 ml PTSO): 8.89 kg
Milk yield After 48 h ([3]; 40 ml PTSO): 7.04 kg
Milk yield After 72 h ([3]; 40 ml PTSO): 9.06 kg
Milk yield After 96 h ([3]; 40 ml PTSO): 15.87 kg
Milk yield Last milking ([3]; 40 ml PTSO): 16.77 kg
% reduction after 24 h ([3]; 40 ml PTSO): 52%
% reduction after 48 h ([3]; 40 ml PTSO): 58%
% reduction after 72 h ([3]; 40 ml PTSO): 46%
% reduction after 96 h ([3]; 40 ml PTSO): 5.4%
time to complete recovery of milk yield ([3]; after PTSO administration): 3 to 4 days
damage to the udder ([3]; bovine, in vivo): does not cause any damage to the udder
dosage at which the effect on milk yield became visible ([3]; single oral dose): ≥ 20 mL
dosage giving maximum response (milk yield decrease) ([3]; single oral dose): ≥ 20 mL
